The record followed here is the OPERA property sets (Mansouri et al. 2018).

Conditions in one data set: not given
In general, boiling point refers to the temperature at which the vapour pressure of the liquid equals the pressure above it. In turn, `CCCCCCc1ccc(N)cc1` displayed a boiling point of 282 °C.
Usually melting point stands for the temperature, or range, at which the solid turns liquid. `O=[N+]([O-])c1ccc(O/N=C/c2cc(Br)c(O)c(Br)c2)c([N+](=O)[O-])c1`: the melting point turned out to be 196 °C.
Regarding `C[C@@H](O)C(=O)c1ccccc1`, the boiling point amounted to 251 °C.
Turning to `Clc1cc2c(Cl)cccc2c(Cl)c1Cl`, the log10 Koa turned out to be 8.29, the log10 vapour pressure (mmHg) is -4.96 and the melting point stood at 141 °C.
Compound `CC1CCNCC1` returned a boiling point of 130 °C.
The compound `OC1c2ccccc2-c2ccccc21` came in with a melting point of 154 °C.
The compound `Cc1nccc2ccccc12` displayed a boiling point of 248 °C and a melting point of 10 °C.
Take `O=C1C(O)=C(Cl)C(=O)C(O)=C1Cl`: the melting point was 284 °C.
Same read-out and setting: under `O=[N+]([O-])c1ccccc1SSc1ccccc1[N+](=O)[O-]` stands 196 °C.
Take `CC(C)Nc1nc(Cl)nc(NC(C)C)n1`: the log10 Koc (L/kg) stood at 2.4, the log10 vapour pressure (mmHg) is -6.88, the melting point worked out at 213 °C and the ready biodegradability result is recorded as “not readily biodegradable”.
Consider `C=C(C)C(=O)OC(C)(C)C`, for which the ready biodegradability entry was “not readily biodegradable”.
In turn, `CC(CCc1ccccc1)NCC(O)c1ccc(O)c(C(N)=O)c1` (stereo not given) showed a melting point of 188 °C.
`COc1nc(NC(C)C)nc(NC(C)C)n1`: the log10 Koc (L/kg) was 2.6, the log10 vapour pressure (mmHg) was -5.64 and the melting point worked out at 91.5 °C.
In the case of `O=C(O)C(F)(F)C(F)(F)C(F)(F)C(F)(F)C(F)(F)C(F)(F)C(F)(F)C(F)(F)C(F)(F)C(F)(F)C(F)(F)C(F)(F)C(F)(F)F`, the ready biodegradability result is “not readily biodegradable”.
For the compound `CC(=O)N(CC(O)CO)c1c(I)c(C(=O)NCC(O)CO)c(I)c(C(=O)NCC(O)CO)c1I` (stereo not given), the melting point was 177 °C.
Same read-out and setting: under `COc1ccc(Cl)cc1C(=O)NCCc1ccc(S(=O)(=O)NC(=O)NC2CCCCC2)cc1` stands 169 °C.
Consider `Cc1cc(O)cc(C)c1Cl`, for which the boiling point was 246 °C and the melting point worked out at 115 °C.
The compound `Cc1cccc2c1ccc1ccccc12` showed a log10 Henry constant (atm·m³/mol) of -4.31, a log10 biodegradation half-life (days) of 1.36, a log10 vapour pressure (mmHg) of -4.82 and a melting point of 123 °C.
For the compound `OCCC1CCNCC1`, the boiling point is 228 °C.
In the case of `ClC1C(Br)C(Br)C(Br)C(Br)C1Br` (stereo not given), the ready biodegradability result was “not readily biodegradable”.
Consider `Cc1nc2ccccc2o1`, for which the boiling point was determined as 200 °C and the melting point came to 9.5 °C.
`CCN1CCCC1` had a boiling point of 104 °C.
`O=Cc1cccc([N+](=O)[O-])c1`: the log10 vapour pressure (mmHg) was -2.14 and the melting point is 58.5 °C.
Regarding `Oc1cccc2cccnc12`, the boiling point amounted to 267 °C, the log10 vapour pressure (mmHg) was -2.78, the melting point came to 75.5 °C and the ready biodegradability entry is listed as “not readily biodegradable”.
In the case of `CCCOc1ccccc1O`, the boiling point was found to be 227 °C.
Take `CSc1ccc(O)cc1C`: the ready biodegradability entry is “not readily biodegradable”.
In the case of `CC=C(Br)Br`, the boiling point turned out to be 125 °C.
`O=C(O)c1ccc(Cl)c([N+](=O)[O-])c1` had a melting point of 183 °C.
On to `C=CCCCCCCCCC(=O)OCC`, for which the boiling point is 264 °C and the melting point is -38 °C.
As to `c1ccc(CN(Cc2ccccc2)Cc2ccccc2)cc1`, the boiling point worked out at 385 °C and the melting point amounted to 91.5 °C.
The compound `NCCc1ccc(O)c(O)c1` gave a melting point of 128 °C.
Take `Ic1ccccc1I`: the boiling point amounted to 287 °C and the melting point stood at 27 °C.
The compound `CC(=O)OC(c1ccccc1)C(Cl)(Cl)Cl` (stereo not given) had a melting point of 87.5 °C.
Same read-out and setting: under `C[C@]12CC[C@H]3[C@@H](CCC4=CC(=O)CC[C@@]43C)[C@@H]1CC[C@@H]2C(=O)CO` stands 142 °C.
On to `CC(O)CC(C)(C)O` (stereo not given), for which the boiling point was determined as 198 °C, the log10 vapour pressure (mmHg) was -1.89, the melting point is -50 °C and the ready biodegradability entry is recorded as “readily biodegradable”.
In the case of `O=C(c1ccccc1)c1ccncc1`, the boiling point was 315 °C and the melting point amounted to 72 °C.
In the case of `Nc1ccc(N=Nc2ccccc2)c(N)n1`, the log10 Koc (L/kg) is 2.32 and the melting point was determined as 139 °C.
For the compound `C=CCc1ccc(OC)c(OC)c1`, the boiling point amounted to 263 °C, the log10 vapour pressure (mmHg) was -1.92 and the ready biodegradability result is “readily biodegradable”.
The compound `C=C/C=C\CC1=C(C)[C@@H](OC(=O)[C@@H]2[C@@H](C=C(C)C)C2(C)C)CC1=O` displayed a log10 vapour pressure (mmHg) of -4.69.
With `CCc1nc(N)nc(N)c1-c1ccc(Cl)cc1`, the melting point came to 234 °C.
As for `Brc1ccc(I)cc1`, the boiling point was 252 °C and the melting point was 92 °C.
`c1ccc(Sc2ccccc2)cc1` displayed a boiling point of 296 °C, a log10 vapour pressure (mmHg) of -2.12 and a melting point of -25.9 °C.
Turning to `O=C(O)C1=CCCCC1`, the boiling point was 241 °C and the melting point was found to be 38 °C.
In the case of `C=COC(=O)CCl`, the ready biodegradability result was “readily biodegradable”.
`O=C1C=C(Nc2ccccc2)C(=O)c2ccccc21`: the melting point was 193 °C.
Consider `CCCCOC(=O)c1ccccc1C(=O)OCCCC`, for which the boiling point was 340 °C, the log10 Henry constant (atm·m³/mol) is -5.74, the log10 Koc (L/kg) was 3.14 and the log10 vapour pressure (mmHg) is -4.7. The melting point was -35 °C and the ready biodegradability result is on record as “readily biodegradable”.
`Cc1ccc[nH]c1=O` showed a boiling point of 289 °C and a melting point of 142 °C.
The like results for `Cc1c(C)c(Br)c(Br)c(Br)c1Br` were, in that order, 374 °C and 262 °C.
In the case of `C/C=C/CCCO`, the boiling point was 159 °C.
`Cn1c(=O)cc(O)c2ccccc21` had a melting point of 270 °C.
`Fc1ccncc1` registered a boiling point of 109 °C.
`CCN(Cc1ccccc1)c1ccccc1` registered a boiling point of 288 °C and a melting point of 35 °C.
`CCCCC(C)C(C)=O` (stereo not given) registered a boiling point of 164 °C.
On to `CC(=O)Nc1cc(NS(=O)(=O)C(F)(F)F)c(C)cc1C`, for which the log10 Koc (L/kg) stood at 2.3 and the melting point came out at 184 °C.
As to `C1CSCCO1`, the boiling point worked out at 147 °C.
`O=CCO`: the log10 Henry constant (atm·m³/mol) was -7.62 and the melting point worked out at 97 °C.
`CC1CNCC(C)O1` (stereo not given): the boiling point is 147 °C and the melting point was -88 °C.
The compound `CC1=Cc2ccccc2C1` returned a boiling point of 208 °C, a log10 biodegradation half-life (days) of 0.477 and a melting point of 80 °C.
For the compound `CC(=O)N(C)C`, the ready biodegradability entry is recorded as “readily biodegradable”.
Consider `CC[C@H](O)C(C)C`, for which the boiling point is 126 °C.
As to `O=[N+]([O-])c1cc(Br)ccc1O`, the melting point is 92 °C.
`CC(C)C(Nc1ccc(C(F)(F)F)cc1Cl)C(=O)OC(C#N)c1cccc(Oc2ccccc2)c1` (stereo not given) gave a log10 Koc (L/kg) of 5.71.
Regarding `CCOC(=O)C(F)Cl` (stereo not given), the boiling point was 129 °C.
In the case of `N#C[S-].[Na+]`, the melting point turned out to be 287 °C.
In turn, `CN(C)CCc1c[nH]c2ccc(O)cc12` gave a melting point of 146 °C.
Compound `COCC(C)Cl` (stereo not given) yielded a boiling point of 99 °C.
In the case of `NC(=O)N1c2ccccc2C=Cc2ccccc21`, the melting point was found to be 190 °C.
Consider `O=C1CCCN1CCO`, for which the boiling point worked out at 295 °C and the melting point was 20 °C.
Take `O=C(O)Cc1ccc2ccccc2c1`: the melting point was 142 °C.
In the case of `C#CC(O)CCC` (stereo not given), the boiling point is 142 °C and the melting point is -80 °C.
Turning to `Cc1cccc(NC(N)=O)c1`, the log10 Koc (L/kg) is 1.56.
For the compound `CCOC(=O)Cc1cccc2ccccc12`, the log10 Koc (L/kg) was determined as 2.48 and the melting point was found to be 88.5 °C.

The same data set, now with this note: fish.
On to `Cc1cccc2c1ccc1ccccc12`, for which the log10 biotransformation half-life (days) came to 0.63.
Regarding `ClC1C(Br)C(Br)C(Br)C(Br)C1Br` (stereo not given), the log10 BCF is 2.41 and the log10 biotransformation half-life (days) is -0.31.
As to `Clc1ccc(Oc2ccc(Cl)cc2Cl)c(Cl)c1`, the log10 biotransformation half-life (days) came out at 2.28.
Compound `CCCCOC(=O)c1ccccc1C(=O)OCCCC` returned a log10 BCF of 2.22 and a log10 biotransformation half-life (days) of -0.4.
